Key:
[1] = tested on: bicistronic HCV replicon (replicon RNA, GenBank Accession No. AJ242654); assay: HCV Replicon Assay; format: cell-based; conditions: Hepatitis C virus, 72 h, read-out: Replicon IC50

Row | SMILES | IC50 [1] [nM] | melting point [°C]
1 | N#Cc1c(-c2ccc(S(=O)(=O)NC(CF)CF)cn2)n(C2CCC2)c2cc(C(F)F)ccc12 [compound 331, 6-[3-cyano-1-cyclobutyl-6-(difluoromethyl)-1H-indol-2-yl]-N-(1,3-difluoropropan-2-yl)pyridine-3-sulfonamide] | < 500 | 217 to 222
2 | CCCS(=O)(=O)Nc1ccc(-c2c(C#N)c3ccc(Oc4ncccc4C#N)cc3n2C2CCC2)nc1 [compound 272, N-(6-{3-cyano-6-[(3-cyanopyridin-2-yl)oxy]-1-cyclobutyl-1H-indol-2-yl}pyridin-3-yl)propane-1-sulfonamide] | 500 to 2000 | 199 to 201
3 | Cc1ccc2c(c1)c(C#N)c(-c1ccc(S(=O)(=O)N[C@@H](C)C3CC3)cn1)n2C(C)C [compound 564, 6-[3-cyano-5-methyl-1-(propan-2-yl)-1H-indol-2-yl]-N-[(1S)-1-cyclopropylethyl]pyridine-3-sulfonamide] | < 500 | 170 to 173
4 | N#Cc1c(-c2ccc(S(=O)(=O)NC3(C(F)(F)F)CC3)cn2)n(-c2ccc(F)cc2)c2cc(OC(F)F)ccc12 [compound 664, 6-[3-cyano-6-(difluoromethoxy)-1-(4-fluorophenyl)-1H-indol-2-yl]-N-[1-(trifluoromethyl)cyclopropyl]pyridine-3-sulfonamide] | < 500 | 195 to 198
5 | N#Cc1c(-c2ncc(S(=O)(=O)NC(CF)CF)cn2)n(C2CCC2)c2ccc(CF)cc12 [compound 377, 2-[3-cyano-1-cyclobutyl-5-(fluoromethyl)-1H-indol-2-yl]-N-(1,3-difluoropropan-2-yl)pyrimidine-5-sulfonamide] | < 500 | 131 to 134
6 | Cc1cc2c(cc1F)c(C#N)c(-c1ccc(S(=O)(=O)N[C@H](C)C(F)(F)F)cn1)n2C1CCCCC1 [compound 680, 6-(3-cyano-1-cyclohexyl-5-fluoro-6-methyl-1H-indol-2-yl)-N-[(2R)-1,1,1-trifluoropropan-2-yl]pyridine-3-sulfonamide] | < 500 | 224 to 229
7 | N#Cc1c(-c2ccc(S(=O)(=O)NC(CF)CF)cn2)n(C2CCCC2)c2cc(OC(F)F)ccc12 [compound 49, 6-[3-cyano-1-cyclopentyl-6-(difluoromethoxy)-1H-indol-2-yl]-N-(1,3-difluoropropan-2-yl)pyridine-3-sulfonamide] | < 500 | 177 to 178
8 | COc1ccc2c(c1)c(C#N)c(-c1ccc(S(=O)(=O)NC(CF)CF)cn1)n2C1CCCC1 [compound 571, 6-(3-cyano-1-cyclopentyl-5-methoxy-1H-indol-2-yl)-N-(1,3-difluoropropan-2-yl)pyridine-3-sulfonamide] | < 500 | 167 to 169
9 | COc1ccc2c(C#N)c(-c3ncc(S(=O)(=O)NC(C)C)cn3)n(C3CCC3)c2c1 [compound 172, 2-(3-cyano-1-cyclobutyl-6-methoxy-1H-indol-2-yl)-N-(propan-2-yl)pyrimidine-5-sulfonamide] | < 500 | 200 to 202
10 | CCc1cc2c(cc1F)c(C(N)=O)c(-c1ccc(S(=O)(=O)N[C@@H](C)C(F)(F)F)cn1)n2-c1ncc(C)cn1 [compound 1047, 6-ethyl-5-fluoro-1-(5-methylpyrimidin-2-yl)-2-(5-{[(2S)-1,1,1-trifluoropropan-2-yl]sulfamoyl}pyridin-2-yl)-1H-indole-3-carboxamide] | 500 to 2000 | 257 to 261
11 | C[C@@H](NS(=O)(=O)c1ccc(-c2c(C#N)c3cc(F)c(OC(F)F)cc3n2C2CCCC2)nc1)C(F)(F)F [compound 713, 6-[3-cyano-1-cyclopentyl-6-(difluoromethoxy)-5-fluoro-1H-indol-2-yl]-N-[(2R)-1,1,1-trifluoropropan-2-yl]pyridine-3-sulfonamide] | < 500 | 197 to 200
12 | CC(C)(NS(=O)(=O)c1ccc(-c2c(C#N)c3c(F)cc(C4CC4)cc3n2-c2ncccn2)nc1)C(F)(F)F [compound 1098, 6-[3-cyano-6-cyclopropyl-4-fluoro-1-(pyrimidin-2-yl)-1H-indol-2-yl]-N-(1,1,1-trifluoro-2-methylpropan-2-yl)pyridine-3-sulfonamide] | 500 to 2000 | 198 to 200
13 | Cc1ccc2c(C#N)c(-c3ccc(S(=O)(=O)N[C@@H](C)C(F)(F)F)cn3)n(C3CCC3)c2c1F [compound 421, 6-(3-cyano-1-cyclobutyl-7-fluoro-6-methyl-1H-indol-2-yl)-N-[(2S)-1,1,1-trifluoropropan-2-yl]pyridine-3-sulfonamide] | < 500 | 210 to 220
14 | CC(C)(NS(=O)(=O)c1ccc(-c2c(C#N)c3ccc(OC(F)F)cc3n2-c2ccccn2)nc1)C(F)(F)F [compound 583, 6-[3-cyano-6-(difluoromethoxy)-1-(pyridin-2-yl)-1H-indol-2-yl]-N-(1,1,1-trifluoro-2-methylpropan-2-yl)pyridine-3-sulfonamide] | < 500 | 170 to 173
15 | CC(C)(C)S(=O)(=O)Nc1ccc(-c2c(C(N)=O)c3cc(F)c(C4CC4)cc3n2-c2ccccc2)cn1 [compound 1100, 2-{6-[(tert-butylsulfonyl)amino]pyridin-3-yl}-6-cyclopropyl-5-fluoro-1-phenyl-1H-indole-3-carboxamide] | < 500 | 272 to 274
16 | Cc1ccc2c(C#N)c(-c3ccc(S(=O)(=O)N[C@@H](C)C(F)(F)F)cn3)n(C(C)C)c2c1 [compound 355, 6-[3-cyano-6-methyl-1-(propan-2-yl)-1H-indol-2-yl]-N-[(2S)-1,1,1-trifluoropropan-2-yl]pyridine-3-sulfonamide] | < 500 | 211 to 216
17 | C[C@H](NS(=O)(=O)c1ccc(-c2c(C#N)c3cc(F)ccc3n2-c2ccccn2)nc1)C(F)(F)F [compound 386, 6-[3-cyano-5-fluoro-1-(pyridin-2-yl)-1H-indol-2-yl]-N-[(2S)-1,1,1-trifluoropropan-2-yl]pyridine-3-sulfonamide] | < 500 | 210 to 212
18 | CC(C)n1c(-c2ncc(S(=O)(=O)N[C@@H](C)C3CC3)cn2)c(C#N)c2cc(F)ccc21 [compound 529, 2-[3-cyano-5-fluoro-1-(propan-2-yl)-1H-indol-2-yl]-N-[(1S)-1-cyclopropylethyl]pyrimidine-5-sulfonamide] | < 500 | 176 to 179
19 | CCc1cc2c(cc1F)c(C#N)c(-c1ccc(S(=O)(=O)NC(C)(C)C)cn1)n2-c1ncccn1 [compound 855, N-tert-butyl-6-[3-cyano-6-ethyl-5-fluoro-1-(pyrimidin-2-yl)-1H-indol-2-yl]pyridine-3-sulfonamide] | < 500 | 208 to 210
20 | N#Cc1c(-c2ncc(S(=O)(=O)NC(CF)CF)cn2)n(C2CCC2)c2cc(CF)ccc12 [compound 361, 2-[3-cyano-1-cyclobutyl-6-(fluoromethyl)-1H-indol-2-yl]-N-(1,3-difluoropropan-2-yl)pyrimidine-5-sulfonamide] | < 500 | 226 to 232
21 | CCc1cc2c(cc1F)c(C(N)=O)c(-c1ccc(S(=O)(=O)N[C@@H](C)C(F)(F)F)cn1)n2-c1ccc(C)cc1 [compound 1021, 6-ethyl-5-fluoro-1-(4-methylphenyl)-2-(5-{[(2S)-1,1,1-trifluoropropan-2-yl]sulfamoyl}pyridin-2-yl)-1H-indole-3-carboxamide] | < 500 | 228 to 233
22 | COc1ccc2c(C#N)c(-c3ncc(S(=O)(=O)NC(CF)CF)cn3)n(C3CCCC3)c2c1 [compound 231, 2-(3-cyano-1-cyclopentyl-6-methoxy-1H-indol-2-yl)-N-(1,3-difluoropropan-2-yl)pyrimidine-5-sulfonamide] | < 500 | 232 to 234
23 | Cc1ccc2c(c1F)c(C#N)c(-c1ccc(S(=O)(=O)N[C@@H](C)C(F)(F)F)cn1)n2C1CCCC1 [compound 615, 6-(3-cyano-1-cyclopentyl-4-fluoro-5-methyl-1H-indol-2-yl)-N-[(2S)-1,1,1-trifluoropropan-2-yl]pyridine-3-sulfonamide] | < 500 | 186 to 197
24 | C[C@@H](NS(=O)(=O)c1ccc(-c2c(C#N)c3ccc(Cl)cc3n2C2CCCCC2)nc1)C(F)(F)F [compound 514, 6-(6-chloro-3-cyano-1-cyclohexyl-1H-indol-2-yl)-N-[(2R)-1,1,1-trifluoropropan-2-yl]pyridine-3-sulfonamide] | < 500 | 218 to 223
25 | CC(C)(NS(=O)(=O)c1ccc(-c2c(C#N)c3ccc(OC(F)F)cc3n2-c2ccc(F)cc2)nc1)C(F)(F)F [compound 687, 6-[3-cyano-6-(difluoromethoxy)-1-(4-fluorophenyl)-1H-indol-2-yl]-N-(1,1,1-trifluoro-2-methylpropan-2-yl)pyridine-3-sulfonamide] | < 500 | 215 to 216
26 | CC(C)NS(=O)(=O)c1cnc(-c2c(C#N)c3ccc(OC(F)(F)F)cc3n2C2CCCC2)nc1 [compound 117, 2-[3-cyano-1-cyclopentyl-6-(trifluoromethoxy)-1H-indol-2-yl]-N-(propan-2-yl)pyrimidine-5-sulfonamide] | 500 to 2000 | 216 to 218
27 | CCc1ccc2c(c1)c(C#N)c(-c1ccc(S(=O)(=O)NC(CF)CF)cn1)n2C1CCCC1 [compound 381, 6-(3-cyano-1-cyclopentyl-5-ethyl-1H-indol-2-yl)-N-(1,3-difluoropropan-2-yl)pyridine-3-sulfonamide] | < 500 | 167 to 168
28 | Cc1c(F)cc2c(C#N)c(-c3ccc(S(=O)(=O)N[C@@H](C)C(F)(F)F)cn3)n(C3CCCC3)c2c1F [compound 508, 6-(3-cyano-1-cyclopentyl-5,7-difluoro-6-methyl-1H-indol-2-yl)-N-[(2S)-1,1,1-trifluoropropan-2-yl]pyridine-3-sulfonamide] | < 500 | 215 to 219
